According to patent US8420605B2, “Hydrogel compositions” (The University of Strathclyde, priority 2005, dated 2013):
Ends that are not written are not given here. * marks the point of attachment. Fmoc = O=C(OCC1c2ccccc2-c2ccccc21)*; Cbz = O=C(OCc1ccccc1)*

What was measured:
[1] = Xu et al., J. Am. Chem. Soc. 2003, 125, 13680; cited from earlier work
[2] = Hydrogel formation from Fmoc-amino acid/di-peptide combinations (tripeptides); assay type: physicochemical; details: Fmoc-AA + di-peptide combination
Excerpt: The inventors thought it would be sensible to retain the two consecutive phenylalanine residues in the peptide, but introduce a third amino acid immediately after the Fmoc cap and before the Phe-Phe. […] In addition, the inventors also made the tripeptide: Fmoc-Leu-Leu-Leu.

[3] = Preparation of self-assembled peptide hydrogels by pH adjustment (gel formation); assay type: physicochemical
[4] = as above; assay type: physicochemical; details: for pH: pH at which the gel formed at the indicated concentrations (Table 3)
Procedure: Fmoc peptides (from BACHEM Ltd) were weighed out into 4 ml glass vials. 2 ml purified water was added followed by sonication for 30-60 seconds. 0.5M NaOH solution was added in 50 μl droplets until a clear solution was formed. 0.1M HCl was added to the solution by stepwise addition of 50 μl followed by mixing using a vortex. pH values were estimated by transferring a spatula tip of hydrogel onto universal indicator paper.
Self-assembled scaffolds were prepared by first suspending the Fmoc-dipeptide in purified water. Upon increase of the pH by addition of concentrated NaOH (thus de-protonating the carboxylic acid group) to a value of >8, a clear solution was obtained. To this solution, concentrated hydrochloric acid was added drop wise until the pH of the solution became 7, at which point a clear, self-supporting gel was formed.
Table 3 below identifies various peptide derivatives (incorporating an aromatic stacking ligand) and mixtures thereof that formed gels at a pH of 6-8 at the indicated concentrations: […]

Row | Substance | Gel formed? [2] | pH [4] | pH value for gelation [1] | other results
1 | Fmoc-L-Ala-L-Ala |  |  | 3 | 
2 | Fmoc-Ala-Ala-OH |  | 3 |  | Gel? ([3]; Component 1 40 mM/L, pH 3): ✓
3 | Fmoc-D-Ala-D-Ala |  |  | 3 | 
4 | Fmoc-Gly-D-Ala |  |  | 5 | 
5 | Fmoc-Gly-L-SER |  |  | 5 | 
6 | Cbz-Phe-Phe-OH |  | 6-8 |  | Gel? ([4]; Component 1 10-30 mM/L, pH 6-8): ✓
7 | Cbz-Leu-Leu-Leu-OH |  | 7 |  | Gel? ([4]; Component 1 5-20 mM/L, pH 7): ✓

Now from value to substance, other results behind:

Row | Gel formed? [2] | pH [4] | Substance | pH value for gelation [1] | other results
8 | ✓ |  | Fmoc-Val-Phe-Phe |  | 
9 | ✓ |  | Fmoc-Ala-Phe-Phe |  | 
10 |  | 3-5 | Fmoc-Gly-Gly-OH | 3 | Gel? ([3]; Component 1 10-40 mM/L, pH 3-5): ✓
11 |  | 3-5 | Fmoc-Phe-Gly-OH |  | Gel? ([3]; Component 1 20 mM/L, pH 3-5): ✓
12 |  | 2 | Fmoc-Leu-Gly-OH |  | Gel? ([3]; Component 1 20 mM/L, pH 2): ✓
13 | ✓ | 7 | Fmoc-Phe-Phe-Phe-OH |  | Gel? ([4]; Component 1 5-20 mM/L, pH 7): ✓
14 | ✓ |  | Fmoc-Leu-Phe-Phe |  | 
15 | ✓ |  | Fmoc-Leu-Leu-Leu |  | 
